In US7829528B2, “Compositions and methods for treating STAT-6 associated diseases or conditions” (The Rockefeller University, priority 2004, dated 2010):
Where no end group is shown, it is not given here.

Columns and labels:
Format in all cases: cell-based, BALB/c mice
IL-4 = experiment: Ovalbumin-induced IL-4 production by splenocytes from ovalbumin-sensitized mice (ELISA); settings: ovalbumin 100 μg/mL + 100 μM peptide added daily, four days; ovalbumin alone 309.3 ± 49.6
Method: Splenocytes from ovalbumin-sensitized mice were cultured for four days with no antigen, with ovalbumin alone, or with ovalbumin plus the STAT-6-IP or a STAT-6 Tyr-641 mutant (STAT-6-CP; Tyr-Ala-Arg-Ala-Ala-Ala-Arg-Gln-Ala-Arg-Ala-Gly-Arg-Gly-Phe-Val-Ser-Thr-Thr; SEQ ID NO:8). The STAT-6-IP and STAT-6-CP were added to splenocyte cultures daily. Treatment with the STAT-6-IP, but not the STAT-6-CP, reduced the supernatant levels of both IL-4 and IL-13 (Table 3).
(§1) BALB/c mice were sensitized systemically by two weekly i.p. injections of 0.025% ovalbumin mixed with 4 mg/mL Al(OH)3. One week after the second sensitization, mice were sacrificed and spleens harvested. A single cell suspension of splenocytes (5×10^6 cells/mL) was cultured in RPMI-1640 medium containing 10% heat-inactivated fetal bovine serum and 2 mM L-glutamine, 50 μM 2-mercaptoethanol, 100 U/mL penicillin, and 100 μg/mL streptomycin sulfate. Splenocytes were cultured for four days in the presence or absence of 100 μg/mL ovalbumin, either alone or with 100 μM STAT-6-IP or STAT-6-CP, which were added daily. After four days, culture supernatants were harvested to quantify cytokine production by ELISA. […] Cytokine expression was monitored by flow cytometry and analyzed using CELLQUEST™ software (Becton Dickinson). […]

IFN-gamma mRNA = experiment: Semiquantitative RT-PCR of IFN-gamma mRNA in splenocytes; settings: splenocytes cultured with ovalbumin plus peptide
Method: (§2) The levels of mRNA encoding IL-4, IL-13 and IFN-gamma were also evaluated by semiquantitative RT-PCR analysis. Ovalbumin-induced expression of both IL-4 and IL-13 mRNA was inhibited in splenocytes cultured with the STAT-6-IP and not the STAT-6-CP. […] The number of CD4+ T cells producing IL-4 was also quantified by intracellular cytokine staining. When splenocytes from ovalbumin-sensitized mice were cultured with ovalbumin, there was a significant increase in the number of CD4+ lymphocytes expressing IL-4 (Table 4). The increase in IL-4 expression was abrogated in splenocytes cultured with ovalbumin in the presence of the STAT-6-IP, while the STAT-6-CP had no effect.
Reverse transcriptase (RT)-PCR was used to monitor expression of mRNAs encoding IL-4, IL-13 and IFN-gamma. Materials for RNA extraction and RT-PCR were purchased from INVITROGEN™ Canada (Burlington, Ontario). Total RNA was extracted from splenocytes, treated with DNAse, and 1 μg of RNA was reverse transcribed into cDNA using SUPERSCRIPT™ II reverse transcriptase. […] PCR products were resolved by gel electrophoresis and visualized and quantified on a FLUORCHEM™ 8000 Imaging System (Alpha Innotech, San Leandro, Calif.) using ALPHAEASE™ software (Alpha Innotech). […]

[1] = tested on: CD4+ lymphocytes expressing IL-4; experiment: Intracellular cytokine staining of CD4+ T cells producing IL-4 (flow cytometry); settings: ovalbumin + 100 μM peptide, ovalbumin alone 90.21 ± 8.02
Method: as §2
as §1, with “Splenocytes were cultured for four days in the presence or absence of 100 μg/mL ovalbumin, either alone or with 100 μM STAT-6-IP or STAT-6-CP, which were added daily.” left out

**Q.** What does the source list for “YARAAARQARAGRGFVSTT [STAT-6-CP, STAT-6 Tyr-641 mutant, control peptide]”?
**A.** IL-4 (pg/mL ± SEM), culture supernatant (IL-4): 212.9 ± 4.1 pg/mL; Expression of IFN-gamma mRNA (IFN-gamma mRNA): did not change; Percentage of IL4 positive cells ± SEM [1]: 92.13 ± 5.62 Percentage
